Like-named read-outs stand apart in the source and are kept apart here.
Key:
[1] = tested on: BVDV (strain NADL); experiment: Cell Protection Assay (CPA); assay type: cell-based, Bovine Viral Diarrhea virus
Experimental: The assay was performed essentially as described by Baginski, S. G.; Pevear, D. C.; Seipel, M.; Sun, S. C. C.; Benetatos, C. A.; Chunduru, S. K.; Rice, C. M. and M. S. Collett “Mechanism of action of a pestivirus antiviral compound” PNAS USA 2000, 97(14), 7981-7986. MDBK cells (ATCC) were seeded onto 96-well culture plates (4,000 cells per well) 24 hours before use. After infection with BVDV (strain NADL, ATCC) at a multiplicity of infection (MOI) of 0.02 plaque forming units (PFU) per cell, serial dilutions of test compounds were added to both infected and uninfected cells in a final concentration of 0.5% DMSO in growth medium. Each dilution was tested in quadruplicate. Cell densities and virus inocula were adjusted to ensure continuous cell growth throughout the experiment and to achieve more than 90% virus-induced cell destruction in the untreated controls after four days post-infection. After four days, plates were fixed with 50% TCA and stained with sulforhodamine B. The optical density of the wells was read in a microplate reader at 550 nm. The 50% effective concentration (EC50) values were defined as the compound concentration that achieved 50% reduction of cytopathic effect of the virus. FIGS. 4 and 5 provide a graphical illustration of the methodology used to arrive at the 50% effective concentration (EC50) values for β-D-2′-CH3-riboG and ribavirin. FIG. 6 compares the results of the CPA for β-D-2′-CH3-riboG, β-D-2′-CH3-riboC, riboU, β-D-2′-CH3-riboA and ribavirin

[2] = tested on: Human bone marrow cells (CFU-GM); experiment: Human bone marrow toxicity, CFU-GM clonogenic assay; assay type: cell-based; settings: human bone marrow colony formation, 14 to 18 days; read-out: IC50 CFU-GM
Text: (§1) Human bone marrow cells were collected from normal healthy volunteers and the mononuclear population was separated by Ficoll-Hypaque gradient centrifugation as described previously by Sommadossi J-P, Carlisle R. “Toxicity of 3′-azido-3′-deoxythymidine and 9-(1,3-dihydroxy-2-propoxymethyl)guanine for normal human hematopoietic progenitor cells in vitro” Antimicrobial Agents and Chemotherapy 1987; 31:452-454; and Sommadossi J-P, Schinazi R F, Chu C K, Xie M-Y. “Comparison of cytotoxicity of the (−)- and (+)-enantiomer of 2′,3′-dideoxy-3′-thiacytidine in normal human bone marrow progenitor cells” Biochemical Pharmacology 1992; 44:1921-1925. The culture assays for CFU-GM and BFU-E were performed using a bilayer soft agar or methylcellulose method. Drugs were diluted in tissue culture medium and filtered. After 14 to 18 days at 37° C. in a humidified atmosphere of 5% CO2 in air, colonies of greater than 50 cells were counted using an inverted microscope. The results in Table 4 are presented as the percent inhibition of colony formation in the presence of drug compared to solvent control cultures.

[3] = tested on: Human bone marrow cells (BFU-E); experiment: Human bone marrow toxicity, BFU-E clonogenic assay; assay type: cell-based; settings: human bone marrow colony formation, 14 to 18 days
Text: as §1

[4] = tested on: BVDV; experiment: Plaque Reduction Assay; assay type: cell-based, Bovine Viral Diarrhea virus
Experimental: For each compound the effective concentration was determined in duplicate 24-well plates by plaque reduction assays. Cell monolayers were infected with 100 PFU/well of virus. Then, serial dilutions of test compounds in MEM supplemented with 2% inactivated serum and 0.75% of methyl cellulose were added to the monolayers. Cultures were further incubated at 37° C. for 3 days, then fixed with 50% ethanol and 0.8% Crystal Violet, washed and air-dried. FIG. 7 is a graphical illustration of the results from the Plaque Reduction Assay. FIG. 8 is an image of BVDV plaque formation in the presence of increasing concentrations of β-D-2′-CH3-riboU.

[5] = tested on: BVDV (NADL strain); experiment: Yield Reduction Assay; assay type: cell-based, Bovine Viral Diarrhea virus
Experimental: The assay was performed as described by Baginski, S. G.; Pevear, D. C.; Seipel, M.; Sun, S. C. C.; Benetatos, C. A.; Chunduru, S. K.; Rice, C. M. and M. S. Collett “Mechanism of action of a pestivirus antiviral compound” PNAS USA 2000, 97(14), 7981-7986, with minor modifications. Briefly, MDBK cells were seeded onto 24-well plates (2×10^5 cells per well) 24 hours before infection with BVDV (NADL strain) at a multiplicity of infection (MOI) of 0.1 PFU per cell. Serial dilutions of test compounds were added to cells in a final concentration of 0.5% DMSO in growth medium. Each dilution was tested in triplicate. After three days, cell cultures (cell monolayers and supernatants) were lysed by three freeze-thaw cycles, and virus yield was quantified by plaque assay. Briefly, MDBK cells were seeded onto 6-well plates (5×10^5 cells per well) 24 h before use. Cells were inoculated with 0.2 mL of test lysates for 1 hour, washed and overlaid with 0.5% agarose in growth medium. After 3 days, cell monolayers were fixed with 3.5% formaldehyde and stained with 1% crystal violet (w/v in 50% ethanol) to visualize plaques. FIG. 9 is a graphical illustration of the results from the Yield Reduction Assay. FIG. 8 is an image of BVDV yield reduction in the presence of increasing concentrations of β-D-2′-CH3-riboC.

[6] = tested on: Bovine Viral Diarrhea virus (BVDV); experiment: microbe, parasite or virus in culture; assay type: cell-based; settings: read-out: BVDV EC50
[7] = tested on: YFV-17D; experiment: microbe, parasite or virus in culture; assay type: cell-based, Yellow fever virus vaccine strain 17D; settings: Table 12; reduce the plaque number by 50%; YFV-BHK; read-out: YFV EC50
[8] = tested on: MDBK cells
[9] = tested on: various cell systems
[10] = tested on: MDBK; experiment: Cytotoxicity assay (sulforhodamine B, CC50), MDBK; assay type: cell-based; settings: MDBK cells, 4 days incubation
Experimental: (§2) Cells were seeded at a rate of between 5×10^3 and 5×10^4/well into 96-well plates in growth medium overnight at 37° C. in a humidified CO2 (5%) atmosphere. New growth medium containing serial dilutions of the drugs was then added. After incubation for 4 days, cultures were fixed in 50% TCA and stained with sulforhodamineB. The optical density was read at 550 nm. The cytotoxic concentration was expressed as the concentration required to reduce the cell number by 50% (CC50).

[11] = tested on: Human Hepatoma; experiment: Cytotoxicity assay (sulforhodamine B, CC50), Human Hepatoma; assay type: cell-based; settings: 4 days incubation
Experimental: as §2

[12] = tested on: HepG2 cells; experiment: Phosphorylation assay of nucleoside to active triphosphate; assay type: in vitro ADME; settings: 10 μM [3H] labeled compound
Experimental: To determine the cellular metabolism of the compounds, HepG2 cells were obtained from the American Type Culture Collection (Rockville, Md.), and were grown in 225 cm^2 tissue culture flasks in minimal essential medium supplemented with non-essential amino acids, 1% penicillin-streptomycin. The medium was renewed every three days, and the cells were subcultured once a week. After detachment of the adherent monolayer with a 10 minute exposure to 30 mL of trypsin-EDTA and three consecutive washes with medium, confluent HepG2 cells were seeded at a density of 2.5×10^6 cells per well in a 6-well plate and exposed to 10 μM of [^3H] labeled active compound (500 dpm/pmol) for the specified time periods. The cells were maintained at 37° C. under a 5% CO2 atmosphere. At the selected time points, the cells were washed three times with ice-cold phosphate-buffered saline (PBS). Intracellular active compound and its respective metabolites were extracted by incubating the cell pellet overnight at −20° C. with 60% methanol followed by extraction with an additional 20 μL of cold methanol for one hour in an ice bath. The extracts were then combined, dried under gentle filtered air flow and stored at −20° C. until HPLC analysis.

[13] = tested on: HepG2 cells; experiment: Mitochondria toxicity assay (L-lactic acid assay); assay type: cell-based; settings: Conc. 10 μM, 4 day drug exposure
Experimental: HepG2 cells were cultured in 12-well plates as described above and exposed to various concentrations of drugs as taught by Pan-Zhou X-R, Cui L, Zhou X-J, Sommadossi J-P, Darley-Usmer V M. “Differential effects of antiretroviral nucleoside analogs on mitochondrial function in HepG2 cells” Antimicrob Agents Chemother 2000; 44:496-503. Lactic acid levels in the culture medium after 4 day drug exposure was measured using a Boehringer lactic acid assay kit. Lactic acid levels were normalized by cell number as measured by hemocytometer count.

[14] = read-out: Cell Protection (EC50)
[15] = HepG2 cells, read-out: CC50 HepG2
[16] = Huh7 cells, read-out: CC50 Huh7

Structure (SMILES) | CC50 [10] [µM] | CC50 [11, 15] [µM] | CC50 [11, 16] [µM] | intracellular triphosphate level ([12]; 8 h) [pmol/million cells] | intracellular triphosphate level ([12]; 24 h) [pmol/million cells] | intracellular triphosphate level ([12]; 30 h) [pmol/million cells] | intracellular triphosphate level ([12]; 48 h) [pmol/million cells] | other results
C[C@@]1(O)[C@H](O)[C@@H](CO)O[C@H]1n1cnc2c(=O)[nH]cnc21 [β-D-2′-CH3-riboI] | – | – | – | – | – | – | – | EC50 [1, 14]: 45 µM
C[C@@]1(O)[C@H](O)[C@@H](CO)O[C@H]1n1ccc(=O)[nH]c1=O [β-D-2′-CH3-riboU] | – | – | – | – | – | – | – | IC50 [2]: > 100 µM; IC50 [3]: > 100 µM; EC50 [1, 14]: 20 µM; EC50 ([1]; read-out: EC50): 20 µM; EC90 ([4]; read-out: EC90): < 81 µM; EC90 ([4]; read-out: Plaque Reduction (EC90)): < 81 µM; Conc. for 6-log Reduction [5]: 120 μM; EC90 [5]: 24 µM; Yield Reduction 6 log10 reduction (μM) [5]: 120 μM; EC50 [6]: 20 µM; EC50 [7]: 33 µM; CC50 [8]: > 250 µM; CC50 [9]: > 100 µM; CC50 ([9]; read-out: YFV CC50, Table 12, reduce the viability of cells by 50%, YFV-BHK system): > 100 µM
CC1(O)[C@@H](O)[C@@H](CO)O[C@H]1n1cnc2c(=O)[nH]c(N)nc21 (stereo partly drawn) [β-D-2'-CH3-riboG] | 100 | > 250 | > 250 | – | – | – | – | –
C[C@@]1(O)[C@H](O)[C@@H](COP(=O)(O)OP(=O)(O)OP(=O)(O)O)O[C@H]1n1cnc2c(N)ncnc21 [β-D-2′-CH3-riboA-TP] | – | – | – | 147 | 427 | 456 | 288 | intracellular triphosphate level ([12]; 2 h): 33.1 pmol/million cells; intracellular triphosphate level ([12]; 4 h): 67.7 pmol/million cells
C[C@@]1(O)[C@H](O)[C@@H](COP(=O)(O)OP(=O)(O)OP(=O)(O)O)O[C@H]1n1ccc(=O)[nH]c1=O [β-D-2′-CH3-riboU-TP] | – | – | – | 1.57 | 6.39 | 7.18 | 9.42 | intracellular triphosphate level ([12]; 2 h): 0.40 pmol/million cells; intracellular triphosphate level ([12]; 4 h): 1.21 pmol/million cells
O=c1[nH]c(=O)n([C@@H]2O[C@H](CO)[C@@H](O)[C@@H]2F)cc1I [FIAU, reference compound] | – | – | – | – | – | – | – | lactate [13]: 3.73 mg/10^6 cell; lactate % of Control [13]: 170.4%
C[C@@]1(O)[C@H](O)[C@@H](COP(=O)(O)OP(=O)(O)OP(=O)(O)O)O[C@H]1n1cnc2c(=O)[nH]c(N)nc21 [β-D-2′-CH3-riboG-TP] | – | – | – | 2.85 | 0.91 | 3.22 | 6.26 | –
C[C@@]1(O)[C@H](O)[C@@H](CO)O[C@H]1n1ccc(N)nc1=O [β-D-2'-CH3-riboC] | 100 | 150 | > 250 | – | – | – | – | –
Cc1cn([C@@H]2O[C@H](CO)[C@@H](O)[C@@]2(C)O)c(=O)[nH]c1=O [β-D-2′-CH3-riboT] | – | – | – | – | – | – | – | EC50 [1, 14]: > 250 µM
C[C@@]1(O)[C@H](O)[C@@H](COP(=O)(O)OP(=O)(O)OP(=O)(O)O)O[C@H]1n1ccc(N)nc1=O [β-D-2′-CH3-riboC-TP] | – | – | – | 9.76 | 34.9 | 36.2 | 56.4 | intracellular triphosphate level ([12]; 2 h): 2.24 pmol/million cells; intracellular triphosphate level ([12]; 4 h): 3.99 pmol/million cells
CC1(O)[C@@H](O)[C@@H](CO)O[C@H]1n1cnc2c(N)ncnc21 (stereo partly drawn) [β-D-2'-CH3-riboA] | 20 | 50 to 60 | 40 | – | – | – | – | –
C[C@@]1(O)[C@H](O)[C@@H](CO)O[C@H]1n1ccc(=O)[nH]c1=O [β-D-2'-CH3-riboU] | > 250 | > 250 | > 250 | – | – | – | – | –
